Results on three compounds are retold here after US6573288B1, “Substituted sulphonyl cyanamides, method for producing same and their use as medicament” (Aventis Pharma Deutschland GmbH, priority 1998, dated 2003).

The subject of series [1] is Na+-dependent Cl-/HCO3 exchanger (NCBE). Briefly: Inhibition of the Na+-dependent Cl-/HCO3- exchanger (NCBE) in human endothelial cells (BCECF fluorescence, FLIPR, pHi recovery). The class given is cell-based. Particulars: inhibitor concentration of 10 μM; human endothelial cells (ECV-304); in presence of 50 μM HOE 642. As to the method: Inhibition of the Na^+-dependent Cl^−/HCO3 exchanger (NCBE) in human endothelial cells
Human endothelial cells (ECV-304) were detached from culture flasks with the aid of trypsin/EDTA buffer (0.05/0.02% in phosphate buffer) and, after centrifugation (100 g, 5 min), taken up in a buffered salt solution (mmol/l: 115 NaCl, 20 NH4Cl, 5 KCl, 1 CaCl2, 1 MgSO4, 20 N-(2-hydroxyethyl)piperazine-N=-2-ethanesulfonic acid (HEPES), 5 glucose and 1, g/l of bovine serum albumin; pH 7.4). This cell suspension was incubated at 37° C. for 20 min with 5 μM BCECF acetoxymethyl ester. The cells were then washed and resuspended in a sodium- and bicarbonate-free buffer solution (mmol/l: 5 HEPES, 133.8 choline chloride, 4.7 KCl, 1.25 MgCl2, 0.97 K2HPO4, 0.23 KH2PO4, 5 glucose; pH 7.4).
For the subsequent fluorescence measurement in the FLIPR (Fluorescent Imaging Plate Reader), 100 μl of this cell suspension in each case containing 20,000 cells were added by pipette per well of a 96-well microtiter plate and this microtiter plate was centrifuged (100 g, 5 min). In the FLIPR, 100 μl of buffer solution in each case were then removed from a further prepared microtiter plate and added by pipette to each of the 96 wells of the measuring plate. In this case, for a 100% control, i.e. a recovery of the intracellular pH (pHi) by means of the NCBE, a bicarbonate- and sodium-containing buffer solution (mmol/l: 5 HEPES, 93.8 NaCl, 40 NaHCO3, 4.7 KCl, 1.25 CaCl2, 1.25 MgCl2, 0.97 Na2HPO4, 0.23 NaH2PO4, 5 glucose; pH 7.4) which contained 50 μM HOE 642 was used. […]
After addition of the buffer solutions to the dye-loaded acidified cells situated in the measuring plate, the increase in the fluorescence intensity which corresponded to an increase in the pHi was determined in each well of the microtiter plate. The kinetics were in this case recorded at 35° C. over a period of 2 minutes.
The increase in the fluorescence intensities for different concentrations of the compounds according to the invention was related to the two controls and from this the inhibitory action of the substances was determined.

Broadly, the melting point is the temperature of the solid-liquid transition. As for `CCCCc1nc(SC)c(C(=O)OCC)n1Cc1ccc(Cc2cccc(S(=O)(=O)NC#N)c2)cc1` [Example 1, Ethyl 2-butyl-5-methylsulfanyl-3-[4-(3′-cyanoaminosulfonylbenzyl)benzyl]-3H-imidazole-4-carboxylate], the melting point came out at 62 °C. The “Residual activity of the NCBE” value in series [1] stood at 11.1%.
On the same counts, the results for `CCCCc1nc(SC)c(C(=O)OCC)n1Cc1cccc(Cc2cccc(S(=O)(=O)NC#N)c2)c1` [Example 2, Ethyl 2-butyl-5-methylsulfanyl-3-[3-(3′-cyanoaminosulfonylbenzyl)benzyl]-3H-imidazole-4-carboxylate] are 172 to 174 °C and 35.2%.
On the same counts, the results for `N#CNS(=O)(=O)c1cccc(Cc2cccc(Cn3c(-c4ccccc4)nc(Cl)c3C=O)c2)c1` [Example 3, 2-Phenyl-4-formyl-5-chloro-3-[3-(3′-cyanoaminosulfonylbenzyl)benzyl]-3H-imidazole] are 75 °C and 24.3%.
